Measured values published in patent publication US5476966A, “Method for depletion of glutathione” (Cornell Research Foundation, Inc., priority 1995, dated 1995).

Experiments:
[1] = mice depleted of glutathione by buthionine sulfoximine; cited from earlier work
[2] = Detection of compound in mouse bile; format: in vivo
[3] = tested on: mouse L1210 leukemia cells; details: resistant cells treated with BSO; cited from earlier work
glutathione = experiment: Tissue glutathione after oral administration of sulfoximines (Table 4); format: in vivo, mouse; details: 2 mmol/Kg oral
Method: Male mice (Swiss Webster) were fasted overnight (about 16 hr.) L-buthionine-SR-sulfoximine (BSO, S-n-butyl homocysteine-SR-sulfoximine), L-S-cyclohexylmethyl homocysteine-SR-sulfoximine (CHMSO); L-S-2-ethylbutylhomocysteine-SR-sulfoximine (2 EtBSO, L-S-2-ethylbutyl homocysteine-SR-sulfoximine, or saline (0.9% NaCl) were administered to mice at 2 mmol/Kg by intubation (100 mM; pH about 1 with HCl (200 mM). At the times indicated, plasma and tissues were obtained and assayed for glutathione (GSH+1/2 GSSG) as described by Anderson, Methods in Enzymology, 1985, 113:548-555. (See Table 4 and 5.)

B16 melanomas = details: cited from earlier work
[4] = tested on: human ovarian cancer cells; details: cited from earlier work
tumor cell lines = details: glucose oxidase, activated macrophages and granulocytes with phorbol myristate acetate; cited from earlier work

SMILES: CCCCS(=N)(=O)CCC(N)C(=O)O [BSO, L-S-butyl homocysteine-SR-sulfoximine]
- decrease in LD50 value of acetaminophen [1]: about 80%
- detection in mouse bile [2]: no BSO was detected
- sensitivity of resistant cells to phenylalanine mustard [3]: resensitization of the tumor cells to phenylalanine mustard
- % Decrease in glutathione (glutathione; brain, 2 hr): 24%
- Glutathione level (glutathione; brain, 2 hr): 1.86 µmol/g
- % Decrease in glutathione (glutathione; brain, 12 hr): 18%
- Glutathione level (glutathione; brain, 12 hr): 1.73 µmol/g
- % Decrease in glutathione (glutathione; kidney, 2 hr): 80%
- Glutathione level (glutathione; kidney, 2 hr): 0.69 µmol/g
- % Decrease in glutathione (glutathione; kidney, 12 hr): 87%
- Glutathione level (glutathione; kidney, 12 hr): 0.45 µmol/g
- % Decrease in glutathione (glutathione; liver, 2 hr): 75%
- Glutathione level (glutathione; liver, 2 hr): 1.23 µmol/g
- % Decrease in glutathione (glutathione; liver, 12 hr): 78%
- Glutathione level (glutathione; liver, 12 hr): 1.10 µmol/g
- % Decrease in glutathione (glutathione; plasma, 2 hr): 59%
- Glutathione level (glutathione; plasma, 2 hr): 9.7 µM
- % Decrease in glutathione (glutathione; plasma, 12 hr): 69%
- Glutathione level (glutathione; plasma, 12 hr): 7.2 µM
- longevity (B16 melanomas; BSO plus irradiation): significant increase in longevity
- tumor size (B16 melanomas; BSO plus irradiation): significant decrease in tumor size
- tumor glutathione content relative to untreated controls (B16 melanomas; when irradiated, tumors in footpads of mice): about 20%
- reversal of resistance ([4]; glutathione depletion with BSO): Reversal of resistance can be achieved
- sensitivity of resistant cells to the drugs and to radiation ([4]; glutathione depletion): significantly increases the sensitivity of the resistant cells
- degree of cytolysis (tumor cell lines): enhanced the degree of cytolysis
